Patent US7772183B2 (Bristol-Myers Squibb Company, priority 2005, dated 2010)
Read-outs that look alike come from different tables or passages of the source.

How the values were obtained:
[1] = molecular target: T1, HCV NS3/4A protease complex, BMS strain (UniProt P27958, species not given/STRAIN_BMS); test: FRET peptide assay to monitor HCV NS3/4A proteolytic activity (BMS strain); type: biochemical, Hepatitis C virus (genotype 1a); conditions: NS3/4A BMS strain; read-out: IC50 Range
T1 construct: said of H77 and J4L6S; fused on or other part: A three-lysine solubilising tail at the C-terminus of NS4A and a His tag (pET21b, Ni-NTA purification)
Procedure, shortened: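 Recombinant NS3/4A complexes (aa 1027–1711) from H77 (1a) and J4L6S (1b) carried a three-lysine tail, C1711G and C1454S. They were expressed in E. coli BL21(DE3) (0.5 mM IPTG, 22 h, 20 °C), then purified by Ni-NTA and Superdex-S200 to >90% purity. The BMS strain was a genotype 1a clone from patient serum.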

[2] = test system: HCV replicon in HUH-7 cells; test: HCV replicon FRET assay; type: cell-based, Hepatitis C virus (strain 1b); conditions: Hepatitis C virus
Procedure, shortened: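 HUH-7 cells stably carrying a genotype 1b subgenomic HCV replicon (NS3–NS5B) treated with compound for 4 days at 37° C, 0.5% DMSO final. Cytotoxicity (CC50) read by alamar Blue; cells then lysed with 10 μM FRET HCV protease peptide substrate and kinetically read (340/490 nm) for EC50.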

[3] = Huh-7, HCV replicon, for compounds tested, read-out: EC50 Range

T1 sequence (P27958 1027-1657, change not shown, one chain of several): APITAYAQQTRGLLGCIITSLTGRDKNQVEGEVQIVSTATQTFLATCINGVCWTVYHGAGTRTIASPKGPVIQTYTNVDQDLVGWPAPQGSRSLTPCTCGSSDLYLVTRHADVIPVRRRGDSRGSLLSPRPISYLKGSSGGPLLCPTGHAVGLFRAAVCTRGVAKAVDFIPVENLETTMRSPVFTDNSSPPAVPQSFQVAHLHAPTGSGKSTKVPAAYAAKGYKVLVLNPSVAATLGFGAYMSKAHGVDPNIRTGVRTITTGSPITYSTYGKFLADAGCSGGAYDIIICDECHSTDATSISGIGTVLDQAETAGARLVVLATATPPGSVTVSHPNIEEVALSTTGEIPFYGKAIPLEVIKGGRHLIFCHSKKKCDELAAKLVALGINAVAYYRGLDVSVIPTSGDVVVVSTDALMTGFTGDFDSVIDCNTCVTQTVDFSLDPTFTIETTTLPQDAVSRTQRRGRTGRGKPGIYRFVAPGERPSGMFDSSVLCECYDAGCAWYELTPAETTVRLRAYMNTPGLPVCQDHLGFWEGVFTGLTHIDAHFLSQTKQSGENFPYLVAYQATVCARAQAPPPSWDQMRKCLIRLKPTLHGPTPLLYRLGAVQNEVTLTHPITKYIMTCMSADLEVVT

In the case of `CC(C)(C)OC(=O)N[C@H]1CCCCC/C=C\[C@@H]2C[C@@]2(C(=O)NS(=O)(=O)C2CC2)NC(=O)[C@@H]2C[C@@H](OC(=O)c3cccc(Cl)c3)CN2C1=O` [Compound 22, 18-(3-chorobenzoyloxy)-14-tert-butoxycarbonylamino-4-cyclopropylsulfonylaminocarbonyl-2,15-dioxo-3,16-diazatricyclo-[14.3.0.0^4,6]-nonadec-7-ene], the IC50 [1] is reported as < 100 nM, the EC50 [2, 3] is reported as < 100 nM and the melting point is reported as 154 to 156 °C.
With `CC(C)(C)OC(=O)N[C@H]1CCCCC/C=C\[C@@H]2C[C@@]2(C(=O)NS(=O)(=O)C2CC2)NC(=O)[C@@H]2C[C@@H](OC(=O)c3ccc4nccnc4c3)CN2C1=O` [Compound 24, 18-(6-quinoxalinecarbonyloxy)-14-tert-butoxycarbonylamino-4-cyclopropylsulfonylaminocarbonyl-2,15-dioxo-3,16-diazatricyclo-[14.3.0.0^4,6]-nonadec-7-ene] the IC50 [1] was < 100 nM, the EC50 [2, 3] was < 100 nM and the melting point was 158 to 160 °C.
For `CC(C)(C)OC(=O)N[C@H]1CCCCC/C=C\[C@@H]2C[C@@]2(C(=O)NS(=O)(=O)C2CC2)NC(=O)[C@@H]2C[C@@H](OC(=O)c3ccc4c(c3)OCCO4)CN2C1=O` [Compound 25, 18-(2,3-dihydro-1,4-benzodioxine-6-carbonyloxy)-14-tert-butoxycarbonylamino-4-cyclopropylsulfonylaminocarbonyl-2,15-dioxo-3,16-diazatricyclo-[14.3.0.0^4,6]-nonadec-7-ene], the IC50 [1] was < 100 nM, the EC50 [2, 3] was < 100 nM and the melting point was 199 to 201 °C.
For `CC(C)(C)OC(=O)N[C@H]1CCCCC/C=C\[C@@H]2C[C@@]2(C(=O)NS(=O)(=O)C2CC2)NC(=O)[C@@H]2C[C@@H](OC(=O)c3cnccn3)CN2C1=O` [Compound 27, 18-(pyrazinecarbonyloxy)-14-tert-butoxycarbonylamino-4-cyclopropylsulfonylaminocarbonyl-2,15-dioxo-3,16-diazatricyclo-[14.3.0.0^4,6]-nonadec-7-ene], the IC50 [1] was < 100 nM, the EC50 [2, 3] was > 1000 nM and the melting point was 150 to 152 °C.
In the case of `CC(C)(C)OC(=O)N[C@H]1CCCCC/C=C\[C@@H]2C[C@@]2(C(=O)NS(=O)(=O)C2CC2)NC(=O)[C@@H]2C[C@@H](OC(=O)c3ccccn3)CN2C1=O` [Compound 28, 18-(picolinoyloxy)-14-tert-butoxycarbonylamino-4-cyclopropylsulfonylaminocarbonyl-2,15-dioxo-3,16-diazatricyclo-[14.3.0.0^4,6]-nonadec-7-ene], the IC50 [1] is reported as < 100 nM, the EC50 [2, 3] is reported as > 1000 nM and the melting point is reported as 164 to 166 °C.
For `CC(C)(C)OC(=O)N[C@H]1CCCCC/C=C\[C@@H]2C[C@@]2(C(=O)NS(=O)(=O)C2CC2)NC(=O)[C@@H]2C[C@@H](OC(=O)c3ccc(F)cc3)CN2C1=O` [Compound 29, 18-(4-fluorobenzoyloxy)-14-tert-butoxycarbonylamino-4-cyclopropylsulfonylaminocarbonyl-2,15-dioxo-3,16-diazatricyclo-[14.3.0.0^4,6]-nonadec-7-ene], the IC50 [1] was < 100 nM, the EC50 [2, 3] was < 100 nM and the melting point was 154 to 156 °C.
In the case of `CC(C)(C)OC(=O)N[C@H]1CCCCC/C=C\[C@@H]2C[C@@]2(C(=O)NS(=O)(=O)C2CC2)NC(=O)[C@@H]2C[C@@H](OC(=O)c3cccnc3)CN2C1=O` [Compound 30, 18-(nicotinoyloxy)-14-tert-butoxycarbonylamino-4-cyclopropylsulfonylaminocarbonyl-2,15-dioxo-3,16-diazatricyclo-[14.3.0.0^4,6]-nonadec-7-ene], the IC50 [1] is reported as < 100 nM, the EC50 [2, 3] is reported as > 1000 nM and the melting point is reported as 157 to 159 °C.
With `COC(=O)c1ccc(C(=O)O[C@@H]2C[C@H]3C(=O)N[C@]4(C(=O)NS(=O)(=O)C5CC5)C[C@H]4/C=C\CCCCC[C@H](NC(=O)OC(C)(C)C)C(=O)N3C2)cc1` [Compound 31] the IC50 [1] was < 100 nM, the EC50 [2, 3] was < 100 nM and the melting point was 154 to 156 °C.
With `CC(C)(C)OC(=O)N[C@H]1CCCCC/C=C\[C@@H]2C[C@@]2(C(=O)NS(=O)(=O)C2CC2)NC(=O)[C@@H]2C[C@@H](OC(=O)c3ccc(-n4cccn4)cc3)CN2C1=O` [Compound 32, 18-(4-[1-pyrazolyl]benzoyloxy)-14-tert-butoxycarbonylamino-4-cyclopropylsulfonylaminocarbonyl-2,15-dioxo-3,16-diazatricyclo-[14.3.0.0^4,6]-nonadec-7-ene] the IC50 [1] was < 100 nM, the EC50 [2, 3] was < 100 nM and the melting point was 167 to 169 °C.
With `CC(C)(C)OC(=O)N[C@H]1CCCCC/C=C\[C@@H]2C[C@@]2(C(=O)NS(=O)(=O)C2CC2)NC(=O)[C@@H]2C[C@@H](OC(=O)c3cccc(C#N)c3)CN2C1=O` [Compound 33, 18-(3-cyanobenzoyloxy)-14-tert-butoxycarbonylamino-4-cyclopropylsulfonylaminocarbonyl-2,15-dioxo-3,16-diazatricyclo-[14.3.0.0^4,6]-nonadec-7-ene] the IC50 [1] was < 100 nM, the EC50 [2, 3] was 100 to 1000 nM and the melting point was 151 to 153 °C.
In the case of `Cc1cc(C(=O)O[C@@H]2C[C@H]3C(=O)N[C@]4(C(=O)NS(=O)(=O)C5CC5)C[C@H]4/C=C\CCCCC[C@H](NC(=O)OC(C)(C)C)C(=O)N3C2)no1` [Compound 34, 18-(5-methylisoxazole-3-carbonyloxy)-14-tert-butoxycarbonylamino-4-cyclopropylsulfonylaminocarbonyl-2,15-dioxo-3,16-diazatricyclo-[14.3.0.0^4,6]-nonadec-7-ene], the IC50 [1] is reported as < 100 nM, the EC50 [2, 3] is reported as > 1000 nM and the melting point is reported as 157 to 159 °C.
For `Cc1cc(C(=O)O[C@@H]2C[C@H]3C(=O)N[C@]4(C(=O)NS(=O)(=O)C5CC5)C[C@H]4/C=C\CCCCC[C@H](NC(=O)OC(C)(C)C)C(=O)N3C2)n(C)n1` [Compound 35], the IC50 [1] was < 100 nM, the EC50 [2, 3] was 100 to 1000 nM and the melting point was 149 to 151 °C.
With `CC(C)(C)OC(=O)N[C@H]1CCCOC/C=C\[C@@H]2C[C@@]2(C(=O)NS(=O)(=O)C2CC2)NC(=O)[C@@H]2C[C@@H](OC(=O)NC3CCCCC3)CN2C1=O` [Compound 36, 18-(cyclohexylaminocarbonyloxy)-14-tert-butoxycarbonylamino-4-cyclopropylsulfonylaminocarbonyl-2,15-dioxo-3,16-diaza-10-oxatricyclo-[14.3.0.0^4,6]-nonadec-7-ene] the IC50 [1] was 100 to 1000 nM, the EC50 [2, 3] was > 1000 nM and the melting point was 156 to 158 °C.
In the case of `CC(C)(C)OC(=O)N[C@H]1CCCOC/C=C\[C@@H]2C[C@@]2(C(=O)NS(=O)(=O)C2CC2)NC(=O)[C@@H]2C[C@@H](OC(=O)NCC3CCCCC3)CN2C1=O` [Compound 37, 18-cyclohexylmethylaminocarbonyloxyl-14-tert-butoxycarbonylamino-4-cyclopropylsulfonylaminocarbonyl-2,15-dioxo-3,16-diaza-10-oxatricyclo-[14.3.0.0^4,6]-nonadec-7-ene], the IC50 [1] is reported as 100 to 1000 nM, the EC50 [2, 3] is reported as > 1000 nM and the melting point is reported as 142 to 144 °C.
For `COC(=O)c1ccccc1NC(=O)O[C@@H]1C[C@H]2C(=O)N[C@]3(C(=O)NS(=O)(=O)C4CC4)C[C@H]3/C=C\COCCC[C@H](NC(=O)OC(C)(C)C)C(=O)N2C1` [Compound 38, 18-(2-carbomethoxyphenylaminocarbonyloxy)-14-tert-butoxycarbonylamino-4-cyclopropylsulfonylaminocarbonyl-2,15-dioxo-3,16-diaza-10-oxatricyclo-[14.3.0.0^4,6]-nonadec-7-ene], the IC50 [1] was < 100 nM, the EC50 ([2]; Huh-7, read-out: EC50 Range) was 100 to 1000 nM and the melting point was 147 to 149 °C.
`CC(C)(C)OC(=O)N[C@H]1COCCC/C=C\[C@@H]2C[C@@]2(C(=O)NS(=O)(=O)C2CC2)NC(=O)[C@@H]2C[C@@H](OC(=O)Nc3ccccc3Oc3ccccc3)CN2C1=O` [Compound 40, 18-(2-phenoxyphenylaminocarbonyloxy)-14-tert-butoxycarbonylamino-4-cyclopropylsulfonylaminocarbonyl-2,15-dioxo-3,16-diaza-12-oxatricyclo-[14.3.0.0^4,6]-nonadec-7-ene] showed an IC50 [1] of 100 to 1000 nM, an EC50 [2, 3] of 100 to 1000 nM and a melting point of 151 to 153 °C.
With `CC(C)(C)OC(=O)N[C@H]1COCCC/C=C\[C@@H]2C[C@@]2(C(=O)NS(=O)(=O)C2CC2)NC(=O)[C@@H]2C[C@@H](OC(=O)Nc3ccc(Oc4ccccc4)cc3)CN2C1=O` [Compound 41, 18-(4-phenoxyphenylaminocabonyloxy)-14-tert-butoxycarbonylamino-4-cyclopropylsulfonylaminocarbonyl-2,15-dioxo-3,16-diaza-12-oxatricyclo-[14.3.0.0^4,6]-nonadec-7-ene] the IC50 [1] was > 1000 nM, the EC50 [2, 3] was > 1000 nM and the melting point was 163 to 165 °C.
In the case of `CC(C)(C)OC(=O)N[C@H]1COCCC/C=C\[C@@H]2C[C@@]2(C(=O)NS(=O)(=O)C2CC2)NC(=O)[C@@H]2C[C@@H](OC(=O)Nc3ccccc3-c3ccccc3)CN2C1=O` [Compound 42, 18-(2-biphenylaminocarbonyloxy)-14-tert-butoxycarbonylamino-4-cyclopropylsulfonylaminocarbonyl-2,15-dioxo-3,16-diaza-12-oxatricyclo-[14.3.0.0^4,6]-nonadec-7-ene], the IC50 [1] is reported as < 100 nM, the EC50 [2, 3] is reported as 100 to 1000 nM and the melting point is reported as 147 to 149 °C.
With `CCOC(=O)c1ccccc1NC(=O)N[C@H]1CCCCC/C=C\[C@@H]2C[C@@]2(C(=O)NS(=O)(=O)C2CC2)NC(=O)[C@@H]2C[C@@H](OC(=O)Nc3ccccc3C(=O)OCC)CN2C1=O` [Compound 44] the IC50 [1] was < 100 nM, the EC50 [2, 3] was 100 to 1000 nM and the melting point was 142 to 144 °C.
